In general, melting point refers to the temperature of the solid-liquid transition. The IC50 is the midpoint of a concentration-inhibition curve.

“Also recorded” adds a separate entry of the source.

One series relates to MDM2. As to the kind of experiment: Western blot of MDM2 level in A549 cells. The format is cell-based, human. The note with it: for MDM2 level, single agent / MDM2 level, combined treatment compared to doxorubicin alone: A549; for MDM2 level, single agent: 0.2 µM derivative alone or 14 µM doxorubicin alone; for MDM2 level, combined treatment compared to doxorubicin alone: 0.2 µM derivative plus 14 µM doxorubicin. On the procedure:
(§1) A549 cells were treated with different concentrations of the molecules as indicated. Cell extracts were prepared as described. Ten-20 μg of total proteins were resolved on 4–15% Mini protean TGX precast gels (Bio-Rad) and transferred to nitrocellulose membrane using 1704158 Trans-Blot Turbo Mini NC Transfer Packs (Bio-Rad) in a Trans-Blot Turbo apparatus (Bio-Rad). Membranes were blocked with 5% non-fat dry milk in 0.1% Tween-20 in PBS for 1 h, then incubated for 1 h at room temperature or overnight at 4 °C with the appropriate primary antibody. The following antibodies were employed: anti-p53 (DO-1, sc-126, Santa Cruz Biotechnology, 1:20.000), anti-p21 (2946, Cell Signaling, 1:2000), anti-MDM2 (SMP14, sc-965, Santa Cruz Biotechnology, 1:200), anti β-actin (AC-74, Sigma-Aldrich, 1:30.000); secondary anti-mouse IgG peroxidase conjugate (A9044, Sigma–Aldrich, 1:10.000) and secondary anti-rabbit peroxidase conjugate (A9169, Sigma-Aldrich, 1: 12.000). Detection was carried out with ECL FAST PICO (ECL-1002, Immunological Sciences, Roma, Italy). Chemiluminescence was analysed by Alliance LD, UVITEC Cambridge (Cambridge, UK).
(A western blot detects proteins with antibodies after separation by electrophoresis.)

For a further series, the system named is p53. In words: Western blot of p53 level in A549 cells. The note with it: for p53 level, single agent / p53 level, combined treatment compared to doxorubicin alone: A549; for p53 level, single agent: 0.2 µM derivative alone or 14 µM doxorubicin alone; for p53 induction, dose–response: A549, 24 h, 0.01, 0.1, 1, 10 µM; for p53 level, combined treatment compared to doxorubicin alone: 0.2 µM derivative plus 14 µM doxorubicin. The format is cell-based, human. On the procedure: as §1

The next series has as its system p21. As to the kind of experiment: Western blot of p21 level in A549 cells. The format is cell-based, human. The note with it: for p21 level, single agent / p21 level, combined treatment compared to doxorubicin alone: A549; for p21 level, single agent: 0.2 µM derivative alone or 14 µM doxorubicin alone; for p21 level, combined treatment compared to doxorubicin alone: 0.2 µM derivative plus 14 µM doxorubicin. On the procedure:
as §1

The next series deals with A549 cells. In words: Annexin-V-FITC / propidium iodide apoptosis assay. The note with it: A549, compounds at their specific IC75s, three days. The format is cell-based, human. On the procedure: The induction of apoptosis was evaluated in A549 cells characterized by wild-type p53 and MDM2 proteins. They were plated at the opportune concentration (see above) into 25 cm^2 flasks in 10 mL complete medium. After 6–8 h the compounds were added at their specific IC75s, as previously calculated by the MTT assay.
All floating and adherent cells were harvested three days later, washed with normal saline buffer, and apoptosis determined by double staining with Annexin-V-FITC and propidium iodide (PI) (rh AnnexinV/FITC Kit, Bender MedSystem GmbH, Vienna, Austria). Briefly, 0.5 × 10^6 cells were resuspended in binding buffer 1× and stained with 5 μL of Annexin-V-FITC. After 10 min incubation 10 μL of PI were added and samples incubated for 5 min. Samples were immediately analyzed using a Flow Cytometer (FACScan, BD Biosciences, Milano, Italy) with dedicated software.

The test system of the next series is activated PBL. As to the kind of experiment: MTT assay on normal PBL activated with PHA and recombinant IL-2. The format is cell-based. The following applies: Homo sapiens, mean ± SD of 4–6 IC50 values. Here is the method: (§2) Human tumor cell lines A2780 [ovary, adenocarcinoma, accession number HTL98008, obtained from Interlab Cell Line Collection (ICLC), Genova, Italy], A549 (lung, carcinoma, HTL03001, ICLC), MDA-MB-453 (breast, carcinoma, HTL01013, ICLC), and HepG2 (liver, carcinoma, HB-8065, American Type Culture Collection, Rockville, MA, USA ) were plated at 1.4 × 10^4/ml, 0.65 × 10^4/mL, 4.7 × 10^4/mL, and 1.0 × 10^4/mL, respectively, in 180 μL complete medium (RPMI 1640 for A2780 and A549 and DMEM for MDA-MB-453 and HepG2) into flat-bottomed 96-well microtiter plates. After 6–8 h cells were treated with 20 μL containing five 1:10 fold concentrations of our compounds diluted in FCS containing 3% DMSO. As normal non-cancer cell targets we used peripheral blood lymphocytes obtained from three healthy volunteers, isolated by gradient centrifugation (Lympholyte-H Cell Separation Media, EuroClone, Pero, MI, Italy) and stimulated with 1% phytohemagglutinin and 100 U/ml recombinant IL-2. One week after stimulation cells were ready for use at 15,000/well.
In both cases, after 72 h treatment, the MTT assay was applied as described elsewhere. […] IC100 and IC75 were extrapolated from the mean concentration–response curves.
A general note: Tetrazolium assays rely on reduction of a dye to a coloured formazan, in cell work by metabolically active cells.

In series [1] the test system is A2780, A549, HepG2, MDA-MB-453. In words: MTT assay, panel of four human cancer cell lines taken together. The following applies: all four cell lines, 30 μM = arbitrary limit of pharmacological relevance. The format is cell-based. Here is the method:
After 6–8 h cells were treated with 20 μL containing five 1:10 fold concentrations of our compounds diluted in FCS containing 3% DMSO. As normal non-cancer cell targets we used peripheral blood lymphocytes obtained from three healthy volunteers, isolated by gradient centrifugation (Lympholyte-H Cell Separation Media, EuroClone, Pero, MI, Italy) and stimulated with 1% phytohemagglutinin and 100 U/ml recombinant IL-2. One week after stimulation cells were ready for use at 15,000/well. In both cases, after 72 h treatment, the MTT assay was applied as described elsewhere. […] IC100 and IC75 were extrapolated from the mean concentration–response curves.

The next series deals with A2780 (ovarian). In words: MTT antiproliferative assay, A2780. The format is cell-based. The following applies: Homo sapiens, 72 h treatment, mean ± SD of 5–6 data. Here is the method:
as §2
(§3) In both cases, after 72 h treatment, the MTT assay was applied as described elsewhere. The IC50 values were calculated from the analysis of single concentration–response curves, each final value is the mean of 5–6 experiments. IC100 and IC75 were extrapolated from the mean concentration–response curves.

The subject of another series is HepG2 (liver). In words: MTT antiproliferative assay, HepG2. The following applies: Homo sapiens, 72 h treatment, mean ± SD of 5–6 data. The format is cell-based. On the procedure:
as §2, §3

The mark [2] stands for this setting: A549, drug concentration equivalent to IC75 (30 µM), fold over mock.

In the case of `COc1cccc2c1C(=O)c1c(O)c3c(c(O)c1C2=O)C[C@@](O)(C(=O)CO)C[C@@H]3O[C@H]1C[C@H](N)[C@H](O)[C@H](C)O1` [Doxorubicin, doxorubicin], in the series on MDM2, the “MDM2 level, single agent” value is given as “strongly decreased”. Further, in the series with p53, the “p53 level, single agent” value is on record as “clearly triggered the induction”. The “p21 level, single agent” value in the series with p21 was “clearly triggered the induction”.

`Cc1c(C(=O)C2C(c3cccc(F)c3)C3CSCN3C23C(=O)Nc2ccccc23)cnn1-c1ccccc1` (centres unmarked) [8j, 7'-(3-Fluorophenyl)-6'-(5-methyl-1-phenyl-1H-pyrazole-4-carbonyl)-1',6',7',7a'-tetrahydro-3'H-spiro[indoline-3,5'-pyrrolo[1,2-c]thiazol]-2-one] returned a melting point of 125 to 126 °C. For the same molecule, in the series on A549 cells, the apoptotic activity entry is “slightly trigger apoptosis”. For the same molecule, in the series on MDM2, the “MDM2 level, single agent” value was “slight but not significant MDM2 increase” and the “MDM2 level, combined treatment compared to doxorubicin alone” value (from here on “MDM2 level … compared to doxorubicin alone”) was “no further increases; also recorded: did not trigger a further”. Also, in the series with p53, the “p53 induction, dose–response” value is “able to induce p53 only at high concentrations; also recorded: induce p53, although not at high level and only at high concentrations”; the “p53 level, single agent” value is “did not increase”; the “p53 level, combined treatment compared to doxorubicin alone” value (shortened to “p53 level … compared to doxorubicin alone”) is recorded as “no further increases; also recorded: did not trigger a further”. Moreover, in the series with p21, the “p21 level, single agent” value is “did not increase” and the “p21 level, combined treatment compared to doxorubicin alone” value (shortened to “p21 level … compared to doxorubicin alone”) is listed as “no further increases”. Besides, the half-inhibitory concentration (IC50) with activated PBL (PBL A) was found to be 54 ± 2.5 µM. The IC50 in the series with activated PBL (PBL B) came to 55 ± 3.3 µM. Also, the IC50 in the series with activated PBL (PBL C) turned out to be 61.2 ± 19.7 µM.

Molecule `Cc1c(C(=O)C2C(c3cccc([N+](=O)[O-])c3)C3CSCN3C23C(=O)Nc2ccccc23)cnn1-c1ccccc1` (centres unmarked) showed a melting point of 146 to 147 °C.

In turn, `Cc1c(C(=O)C2C(c3ccccn3)C3CSCN3C23C(=O)Nc2ccccc23)cnn1-c1ccccc1` (centres unmarked) [8l, 6'-(5-Methyl-1-phenyl-1H-pyrazole-4-carbonyl)-7'-(pyridin-2-yl)-3',6',7',7a'-tetrahydro-1'H-spiro[indoline-3,5'-pyrrolo[1,2-c]thiazol]-2-one] displayed a melting point of 135 to 136 °C. Besides, the IC50 in [1] was no less than 30 µM.

Consider `Cc1cccc(C2C3CSCN3C3(C(=O)Nc4ccccc43)C2C(=O)c2cnn(-c3ccccc3)c2C)c1` (centres unmarked), for which the melting point fell in the range of 128 to 130 °C.

Regarding `COc1ccc(C2C3CSCN3C3(C(=O)Nc4ccccc43)C2C(=O)c2cnn(-c3ccccc3)c2C)cc1` (centres unmarked), the melting point lay in the range of 109 to 110 °C.

Turning to `Cc1c(C(=O)C2C(c3ccco3)C3CSCN3C23C(=O)Nc2ccccc23)cnn1-c1ccccc1` (centres unmarked) [8b, 7'-(Furan-2-yl)-6'-(5-methyl-1-phenyl-1H-pyrazole-4-carbonyl)-3',6',7',7a'-tetrahydro-1'H-spiro[indoline-3,5'-pyrrolo[1,2-c]thiazol]-2-one], the melting point was in the range of 227 to 228 °C. Also, the apoptotic activity entry with A549 cells is given as “significantly trigger apoptosis”. Besides, in the series on A549 cells (listed as 8t), the apoptotic activity entry is recorded as “highly significant apoptotic activity”. In addition, the MDM2 level result in the series with MDM2 (setting [2]) was “an increase”. In addition, the p53 level result in the series with p53 (setting [2]) is listed as “significantly increased; also recorded: able to activate p53”. In the series on p21 (setting [2]), the p21 level result was “an increase”. In series [1], this molecule had an IC50 of no less than 30 µM.

The molecule `Cc1ccc(C2C3CSCN3C3(C(=O)Nc4ccccc43)C2C(=O)c2cnn(-c3ccccc3)c2C)cc1` (centres unmarked) gave a melting point of 134 to 135 °C.

For the molecule “7'-(Ferrocin-2-yl)-6'-(5-methyl-1-phenyl-1H-pyrazole-4-carbonyl)-3',6',7',7a'-tetrahydro-1'H-spiro[indoline-3,5'-pyrrolo[1,2-c]thiazol]-2-one [8d]”, in the series with MDM2, the “MDM2 level, single agent” value was “slight but not significant MDM2 increase” and the “MDM2 level … compared to doxorubicin alone” value is recorded as “no further increases”. In the series with p53, the “p53 induction, dose–response” value is recorded as “able to induce p53 only at high concentrations”; the “p53 level, single agent” value is given as “did not increase”; the “p53 level … compared to doxorubicin alone” value was “no further increases”. Moreover, in the series with p21, the “p21 level, single agent” value is “did not increase” and the “p21 level … compared to doxorubicin alone” value is reported as “no further increases”.

The molecule `Cc1c(C(=O)C2C(c3ccc(Cl)cc3Cl)C3CSCN3C23C(=O)Nc2ccccc23)cnn1-c1ccccc1` (centres unmarked) [8h, 7'-(2,4-Dichlorophenyl)-6'-(5-methyl-1-phenyl-1H-pyrazole-4-carbonyl)-1',6',7',7a'-tetrahydro-3'H-spiro[indoline-3,5'-pyrrolo[1,2-c]thiazol]-2-one] had a melting point of 141 to 142 °C. For the same molecule, in the series with A549 cells, the apoptotic activity entry is recorded as “slightly trigger apoptosis”. Also, in the series on MDM2, the “MDM2 level, single agent” value is listed as “slight but not significant MDM2 increase” and the “MDM2 level … compared to doxorubicin alone” value is “no further increases; also recorded: did not trigger a further”. In the series with p53, the “p53 induction, dose–response” value was “able to induce p53 only at high concentrations; also recorded: induce p53, although not at high level and only at high concentrations”; the “p53 level, single agent” value is “did not increase”; the “p53 level … compared to doxorubicin alone” value is “no further increases; also recorded: did not trigger a further”. Further, in the series on p21, the “p21 level, single agent” value is reported as “did not increase” and the “p21 level … compared to doxorubicin alone” value is given as “no further increases”. Further, half-maximal inhibition with A2780 (ovarian) (IC50) required 10.3 µM. Moreover, the midpoint of inhibition in the series on HepG2 (liver), the IC50, lay at 18.6 µM. The IC50 in the series with activated PBL (PBL A) is 53.6 ± 2.1 µM. In the series with activated PBL (PBL B), the half-maximal inhibitory concentration (IC50) was found to be 57.4 ± 5.5 µM. The half-maximal inhibitory concentration (IC50) in the series on activated PBL (PBL C) came out at 65.8 ± 23.2 µM.

`Cc1c(C(=O)C2C(c3ccc(Cl)cc3)C3CSCN3C23C(=O)Nc2ccccc23)cnn1-c1ccccc1` (centres unmarked) had a melting point of 122 to 123 °C.

On to `Cc1c(C(=O)C2C(/C=C/c3ccccc3)C3CSCN3C23C(=O)Nc2ccccc23)cnn1-c1ccccc1` (centres unmarked), for which the melting point was in the range of 144 to 145 °C.

`Cc1c(C(=O)C2C(c3ccccc3)C3CSCN3C23C(=O)Nc2ccccc23)cnn1-c1ccccc1` (centres unmarked) came in with a melting point of 229 to 230 °C.

`Cc1c(C(=O)C2C(c3ccc([N+](=O)[O-])cc3)C3CSCN3C23C(=O)Nc2ccccc23)cnn1-c1ccccc1` (centres unmarked): the melting point is 142 to 143 °C.

(Values after publication PMC10167355, “Optimized spirooxindole-pyrazole hybrids targeting the p53-MDM2 interplay induce apoptosis and synergize with doxorubicin in A549 cells” (Scientific Reports, 2023).)
